Results on eleven compounds are retold here after US8193224B2, “Medicinal composition for prevention or treatment of parasitic protozoan infection” (Fujifilm Corporation, priority 2004, dated 2012).

Common to all, as to format: cell-based
The nature of data set [1]: Growth inhibition test of rat L6 cells. How it is done:
(§1) Rat derived-L6 cells (rat skeletal myoblast cell) were used. As medium, RPMI1640 medium was supplemented so that L-glutamin (200 mM) is 1%, and fetal bovine serum 10%, and the medium was cultured under CO2 concentration 5%, at 37° C. The compounds of the present invention and the target drugs to be used in the test were dissolved in DMSO, to make a test solution of a predetermined concentration. Pre-culture was conducted and medium containing cells which have entered the logarithmic growth phase was taken to wells of a 96-well culture plate. Then, a test solution containing drug of a predetermined concentration or a drug-free DMSO was added. Test solutions were taken by duplicates. Culture plate was cultured for 72 hours in an incubator, to test the growth inhibition activity. Test was conducted as follows.
(§2) 10 μl of Alamar Blue aqueous solution was added to each well, and the resultant was further cultured for 2 hours. Next, the culture plate was placed on a fluorescent micro-plate reader (Spectramax Gemeni XS; US Molecular Device), radiated at an excited wavelength of 536 nm. Fluorescent intensity was measured at 588 nm, and residual rate of L6 cells of the test solution added group, and that of the control was calculated. Based on the cell residual rate obtained in the above, growth inhibition rate to L6 cells was calculated, to obtain a 50% growth inhibition concentration (EC50). Growth inhibition rate (%)={(C−A)/(B−A)}×100 A: primary cell count B: cell count of control, 3 days after C: cell count of wells added with a sample, 3 days after […]

For data set [2], the system named is Plasmodium falciparum K1 strain. Kind of data set: Chloroquine resistant-Plasmodium falciparum growth inhibition screening test. The following applies: for EC50: chloroquine resistant K1 strain, 3H-hypoxanthine, 48 + 24 hours, read-out: 50% growth inhibition concentration P. falciparum K1; for Selective toxicity: chemotherapy index = EC50 rat L6 cells / EC50 chloroquine resistant P. falciparum. How it is done: In the present example, protozoa of Plasmodium falciparum K1 strain was used. RPMI-1640 medium sterilized with a filter to which human serum was added to be 5%, was used in the experiment. Malarial parasites were cultured under 3% O2 concentration, 4% Co2 concentration, 93% N2 concentration, and at a temperature of 37° C.
The compounds of the present invention to be used in the present test and the positive target drug (chloroquine) were dissolved in DMSO to make a test solution of a predetermined concentration. Cultured malarial parasite infected-erythrocytes were collected by centrifugation, and diluted with non-infected erythrocyte so that the early infection rate is 0.15%. Hematocrit level at that time was 2.5%. 200 μL of malaria infected solution was added to wells of a 96-well culture plate, and adjusted by adding a test solution containing drug of a predetermined concentration or a drug-free DMSO. Test solutions were taken by duplicates. After culturing for 48 hours at 37° C., 0.5 μCi radioactive tritium (3H)-labeled hypoxanthine was added to each well. After further culturing for 24 hours under the same conditions, it was collected on a glass fiber filter and washed with distilled water. Radiation intensity was measured with a beta plate liquid scintillation counter (Wallac), and malarial parasite infection rates of the test solution added group and of the control group were calculated. Growth inhibition rate was calculated with the following formula based on the malarial parasite infection rate obtained in the above, to obtain a 50% growth inhibition concentration (EC50). Growth inhibition rate (%)={1−(b−a)/(c−a)}×100 a: early infection rate b: infection rate when test solution was added c: infection rate of the control

Data set [3] concerns Trypanosoma brucei rhodensiense (STIB 900 strain). Nature of the data set: African trypanosome protozoa growth inhibition screening test. The following applies: read-out: 50% growth inhibiting concentration Trypanosoma brucei rhod. The procedure:
In the present example, protozoa of Trypanosoma brucei rhodensiense (STIB 900 strain), a trypamastigote living in blood stream, was used. The medium used in the experiment was a MEM medium which was sterilized with a filter and supplemented with 25 mM N-2-hydroxyethylpiperazine-2-ethansulfonic acid […]), 1 g/L glucose, 1% MEM non-essential amino acid, 0.2 mM 2-mercaptoethanol, 2 mM sodium pyruvate, 0.1 mM hypoxanthine, and 15% heat-treated horse serum. The protozoa was cultured in an atmosphere of CO2 concentration 5%, at a temperature of 37° C.
The compounds of the present invention to be used in the present test and the positive target drug (melarsoprol) were dissolved in DMSO to make a test solution of a predetermined concentration. A medium containing 8×10^3 protozoa, and a test solution containing a drug of a predetermined concentration or a drug-free DMSO were added to wells of a 96-well culture plate, and subsequently, medium was added so that the amount in each well becomes 100 μL. Test solutions were taken by duplicates. After culturing the culture plate for 72 hours in an incubator, growth inhibition activity was tested. Test was conducted as follows. 10 μL of Alamar Blue aqueous solution was added to each well, and the resultant was further cultured for 2 hours. Next, the culture plate was placed on a fluorescent micro-plate reader (Spectramax Gemeni XS; US Molecular Device), radiated at an excited wavelength of 536 nm. Fluorescent intensity was measured at 588 nm, to calculate the trypanosome protozoa infected rate of the test solution added-group, and of the control group. From the protozoan infection rate obtained in the above, growth inhibition rate was calculated with the following formula, to obtain a 50% growth inhibition concentration (EC50). Growth inhibition rate (%)={1−(b−a)/(c−a)}×100 a: early infection rate b: infection rate when test solution was added c: infection rate of the control

The test system of data set [4] is Rat derived-L6 cells (rat skeletal myoblast cell). Kind of data set: Growth inhibition test of rat L6 cells. The following applies: 72 hours. How it is done: as §1, §2
For data set [5], the system named is Leishmania donovani (MHOM/ET/67/L82 strain). Nature of the data set: Leishmania protozoa growth inhibition screening test. As to conditions: MHOM/ET/67/L82 strain amastigote, pH 5.4, 72 hours, Alamar Blue, read-out: 50% growth inhibition concentration Leishmania donovani. How it is done: In the present example, Leishmania donovani (MHOM/ET/67/L82 strain) was used. Protozoa was subcultured in Syrian Golden hamster, from which an amastigote was obtained. In the experiment, SM medium supplemented with 10% heat-treated bovine fetal serum was used, which was adjusted to pH 5.4, and cultured in an atmosphere of 5% CO2 concentration, at 37° C.
The compounds of the present invention to be used in the present test and the positive target drug (miltefosine) were dissolved in DMSO to make a test solution of a predetermined concentration. After adding a medium containing a predetermined number of protozoa to wells of a 96-well culture plate and pre-treating, concentration of the amastigote was measured with CASY cell analysis system (Scharfe, Germany). Then, test solution containing a drug of a predetermined concentration or a drug-free DMSO was added. Test solutions were taken by duplicates. After culturing the culture plate for 72 hours in an incubator, growth inhibition activity was tested. Test was conducted as follows.
10 μL of Alamar Blue aqueous solution was added to each well, and the resultant was further cultured for 2 hours. Next, the culture plate was placed on a fluorescent micro-plate reader (Spectramax Gemeni XS; US Molecular Device), radiated at an excited wavelength of 536 nm. Fluorescent intensity was measured at 588 nm, and infection rate of leishmania protozoa of the test solution added-group and control was calculated, to obtain a 50% growth inhibition concentration (EC50). Growth inhibition rate (%)={1−(b−a)/(c−a)}×100 a: early infection rate b: infection rate when test solution was added c: infection rate of the control
A general note: Resazurin is reduced to fluorescent resorufin, in cell work by metabolically active cells.

Data set [6] has as its system Trypanosoma cruzi (Tulahuen C2C4 strain). Kind of data set: American trypanosome protozoa growth inhibition screening test. As to conditions: Tulahuen C2C4 strain in rat L6 cells, 96 hours, CPRG/Nonidet, read-out: 50% growth inhibition concentration Trypanosoma cruzi. The procedure: In the present example, amastigote and trypomastigote infected with rat L6 cells of protozoa of Trypanosoma cruzi (Tulahuen C2C4 strain) were used. As medium used in the test, RPMI 1640 medium containing L6 cells was supplemented so that L-glutamine (200 mM) becomes 1%, fetal bovine serum becomes 10%, which was cultured under CO2 concentration 5%, at 37° C.
The compounds of the present invention to be used in the test and the positive target agent (benznidazole) were dissolved in DMSO to make a test solution of a predetermined concentration. A medium containing 5×10^3 protozoa was added to wells of a 96-well culture plate, and pre-cultured for 48 hours. After replacing the medium, test solution containing drug of a predetermined concentration or a drug-free DMSO was added. Test solutions were taken by duplicates. After culturing the culture plate in an incubator for 96 hours, growth inhibition activity was tested. Test was conducted as follows.
50 μL of CPRG/Nonidet was added to each well, and allowed to rest for 2 to 6 hours. Next, the culture plate was placed on a fluorescent micro-plate reader, and the absorbance was measured at 540 nm. Growth inhibition rate was calculated with the following formula based on the protozoan infection rate which was obtained by calculating trypanosome infection rate of the test solution added group and control group, to obtain a 50% growth inhibition concentration (EC50). Growth inhibition rate (%)={1−(b−a)/(c−a)}×100 a: early infection rate b: infection rate when test solution was added c: infection rate of the control

Data set [7] has as its system Trypanosoma brucei rhodensiense (STIB 900 strain). Nature of the data set: African trypanosome protozoa growth inhibition screening test. As to conditions: chemotherapy index = EC50 rat L6 cells / EC50 African trypanosome protozoa.
Where [8] appears, read: L6 cells (rat skeletal myoblast), Alamar Blue (Table 2), read-out: 50% growth inhibition concentration Cytotoxicity L6.
The mark [9] stands for this setting: STIB 900 strain, blood stream form, 72 hours, Alamar Blue.
The mark [10] stands for this setting: Alamar Blue (Table 2), read-out: 50% growth inhibition concentration Cytotoxicity L6.
[11] abbreviates: Alamar Blue (Table 3), read-out: 50% growth inhibiting concentration Cytotoxicity L6.
Where [12] appears, read: Trypanosoma brucei, STIB900, STIB 900 strain, blood stream form, 72 hours, Alamar Blue.

Read-outs that look alike come from different tables or passages of the source.

Turning to `CCn1c(=O)/c(=C/C=C2\Sc3ccccc3N2C)s/c1=C\c1cccc[n+]1CCO` [A-5], in data set [1] (setting [8]), the EC50 at 72 h amounted to 42000 nM. For the same compound, the EC50 in data set [2] (Plasmodium falciparum, 72 h) was 270 nM. This compound also came in with a Selective toxicity in data set [2] of 150.
For the compound `CCn1c(=Cc2cc[n+](CC)c3ccccc23)sc(=CC=C2C=Cc3ccccc3N2C)c1=O` [A-14], the EC50 in data set [3] (setting [9]) turned out to be 41 nM; in data set [4] (setting [10]) it was 9100 nM; in data set [4] (setting [11]), 9100 nM; in data set [5] it was 200 nM; in data set [2], 140 nM; in data set [6], 1200 nM.
Consider `O=C(Cn1ccnc1[N+](=O)[O-])NCc1ccccc1` [benznidazol, benznidazole, reference compound], for which the EC50 in data set [6] (Trypanosoma cruzi) was 870 nM.
`C=CCn1c(=Cc2oc3ccccc3[n+]2C)sc(=CC=C2Sc3ccccc3N2C)c1=O` [A-13]: the EC50 turned out to be 110 nM in data set [3] (setting [9]); 13000 nM in data set [4] (setting [11]); 13000 nM in data set [4] (Alamar Blue (Table 5), read-out: 50% growth inhibition concentration Cytotoxicity L6); 47 nM in data set [5].
For `CCn1c(=Cc2sc3c4ccccc4ccc3[n+]2CC)sc(=CC=C2SCCN2C)c1=O` [A-9], the EC50 was found to be 140 nM in data set [3] (setting [9]); 8100 nM in data set [4] (setting [10]); 8100 nM in data set [4] (setting [11]); 23 nM in data set [5]; 74 nM in data set [2]; 4100 nM in data set [6].
Take `CCn1c(=O)/c(=C/C=C2\Sc3ccccc3N2C)s/c1=C\c1cccc[n+]1CCCCC(=O)O` [A-12]: the EC50 in data set [3] (setting [12]) was 900 nM; in data set [2] (Plasmodium falciparum, 72 h), 210 nM. Besides, in data set [1] (setting [8]), the EC50 at 72 h was 17000 nM. The figures for the Selective toxicity in data set [2] and in data set [7] were 84 and 19, respectively.
Consider `CCn1c(=O)/c(=C/C=C2\Sc3ccccc3N2C)s/c1=C\c1cccc[n+]1CCOCCOCCOC` [A-6], for which the EC50 in data set [3] (setting [12]) was determined as 130 nM; in data set [2] (Plasmodium falciparum, 72 h) it was 190 nM. Moreover, the EC50 at 72 h in data set [1] (setting [8]) was found to be 44000 nM. Moreover, the Selective toxicity in data set [2] was found to be 236; in data set [7], 340.
Take `CCn1c(=Cc2cccc[n+]2C)sc(=CC=C2Sc3ccccc3N2C)c1=O` [A-4]: the EC50 in data set [3] (setting [9]) amounted to 410 nM; in data set [4] (setting [10]) it was 76000 nM; in data set [4] (setting [11]), 76000 nM; in data set [2], 120 nM.
On to `Nc1nc(N)nc(Nc2ccc([As]3SCC(CO)S3)cc2)n1` (centres unmarked) [melarsoprol, reference compound], for which the EC50 in data set [3] (Trypanosoma brucei, STIB900, 72 h) came out at 6 nM. The EC50 at 72 h in data set [1] (setting [11]) came to 7800 nM. Also, the Selective toxicity in data set [7] is reported as 1300.
`CCCCCCCCCCCCCCCCOP(=O)([O-])OCC[N+](C)(C)C` [miltefosine, reference compound]: the EC50 in data set [5] (Leishmania donovani) was 280 nM.
With `CCn1c(=Cc2oc3ccccc3[n+]2CC)sc(=CC=C2N(C)c3ccccc3C2(C)C)c1=O` [A-8], the EC50 worked out at 300 nM in data set [3] (setting [9]); 1800 nM in data set [4] (setting [10]); 1800 nM in data set [4] (setting [11]); 56 nM in data set [5]; 14 nM in data set [2]; 990 nM in data set [6].
